Assay results published in US20250304526A1, “HIGH AND MULTIPLE REDOX POTENTIAL, STABLE, AND SOLUBLE BIS-DIARYLAMINE DERIVATIVES AND USES THEREOF” (University of Kentucky Research Foundation, priority 2024, published 2025).

Assay: Solubility determination in pure acetonitrile by mass measurement
Assay type: physicochemical
Procedure: The solubility of the compounds in pure acetonitrile was determined by the mass measurement method described previously. Saturated solutions of each compound were prepared and filtered to remove any undissolved material. Afterwards, 3 mL of each solution were taken and added to previously weighed vials (the measurement was repeated three times for each solution, i.e. 3 vials for each solution). The vials were then stored open in a nitrogen-filled glove box to allow the slow evaporation of the solvent. After 10 days, acetonitrile was evaporated from all vials, leaving only the previously dissolved solid. The vials were then re-weighed and the mass of the solid was determined by subtracting the mass of the respective empty vial. The concentration of the compound was calculated from the mass of the dissolved solid and the volume of the sample placed into the vial.
The solubilities of 1-4 were examined in pure CH3CN using the mass measurement method.

- solubility: virtually insoluble
SMILES: c1ccc(N(c2ccccc2)c2ccc(N(c3ccccc3)c3ccccc3)cc2)cc1 [A, N,N,N′,N′-Tetraphenyl-1,4-phenylenediamine, reference compound]
